Reference: PubChem BioAssay (NCI)
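Assay format: 96-well plates, 48-hour exposure. Definition used: TGI = concentration required for complete inhibition of growth.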

Columns and labels:
Test in all cases: DTP human tumour cell line panel, 48 h
786-0 renal = tested on: 786-0 renal
A498 renal = tested on: A498 renal
A549 NSCLC = tested on: A549 NSCLC
ACHN renal = tested on: ACHN renal
CAKI-1 renal = tested on: CAKI-1 renal
CCRF-CEM leukemia = tested on: CCRF-CEM leukemia
COLO 205 colon = tested on: COLO 205 colon
DLD-1 colon = tested on: DLD-1 colon
DMS 114 small cell lung = tested on: DMS 114 small cell lung
EKVX NSCLC = tested on: EKVX NSCLC
HCC-2998 colon = tested on: HCC-2998 colon
HCT-116 colon = tested on: HCT-116 colon
HCT-15 colon = tested on: HCT-15 colon
HL-60(TB) leukemia = tested on: HL-60(TB) leukemia
HOP-62 NSCLC = tested on: HOP-62 NSCLC
HOP-92 NSCLC = tested on: HOP-92 NSCLC
HT29 colon = tested on: HT29 colon
IGROV1 ovarian = tested on: IGROV1 ovarian
K-562 leukemia = tested on: K-562 leukemia
KM12 colon = tested on: KM12 colon
KM20L2 colon = tested on: KM20L2 colon
LOX IMVI melanoma = tested on: LOX IMVI melanoma
LXFL 529 NSCLC = tested on: LXFL 529 NSCLC
M14 melanoma = tested on: M14 melanoma
MALME-3M melanoma = tested on: MALME-3M melanoma
MOLT-4 leukemia = tested on: MOLT-4 leukemia
NCI-H226 lung = tested on: NCI-H226 lung
NCI-H23 lung = tested on: NCI-H23 lung
NCI-H460 lung = tested on: NCI-H460 lung
OVCAR-3 ovarian = tested on: OVCAR-3 ovarian
OVCAR-4 ovarian = tested on: OVCAR-4 ovarian
OVCAR-5 ovarian = tested on: OVCAR-5 ovarian
OVCAR-8 ovarian = tested on: OVCAR-8 ovarian
RPMI-8226 leukemia = tested on: RPMI-8226 leukemia
RXF 393 renal = tested on: RXF 393 renal
SF-268 CNS = tested on: SF-268 CNS
SF-295 CNS = tested on: SF-295 CNS
SF-539 CNS = tested on: SF-539 CNS
SK-MEL-2 melanoma = tested on: SK-MEL-2 melanoma
SK-MEL-28 melanoma = tested on: SK-MEL-28 melanoma
SK-MEL-5 melanoma = tested on: SK-MEL-5 melanoma
SK-OV-3 ovarian = tested on: SK-OV-3 ovarian
SN12C renal = tested on: SN12C renal
SNB-19 CNS = tested on: SNB-19 CNS
SNB-75 CNS = tested on: SNB-75 CNS
SNB-78 CNS = tested on: SNB-78 CNS
SR leukemia = tested on: SR leukemia
SW-620 colon = tested on: SW-620 colon
TK-10 renal = tested on: TK-10 renal
U251 CNS = tested on: U251 CNS
UACC-257 melanoma = tested on: UACC-257 melanoma
UACC-62 melanoma = tested on: UACC-62 melanoma
UO-31 renal = tested on: UO-31 renal
XF 498 CNS = tested on: XF 498 CNS

Measured: TGI

Cc1ccc(NC(=O)C(=O)C(C2C(C)CC(=O)C2CC(=O)O)[N+](=O)[O-])cc1 (centres undefined)
> 100 µM: all assays above
